The values that follow come from patent publication US8101783B1, “Titanium-maltol compound and method of synthesizing the same” (priority 2007, dated 2012).

The conditions of data set [1]: physiological pH; cited from earlier work.
Data set [2] can be described thus: Solubility of the Ti(IV)-maltol complexes in water and in CH2Cl2. The data set is classed as physicochemical. The protocol:
Alternatively, more than two (and preferably three) equivalents of maltol could be used to provide an excess and ensure completion of the reaction.
However, at pH of 8.4 the complex becomes soluble in water but promotes tetramerization of the [Ti(maltolato)2(OH)2] species. In fact, this can be monitored by NMR spectroscopy. A pure sample of cis-[Ti(maltolato)2(OH)2] was dissolved in D2O at pH of 8.4. […] These two species belong most likely to cis-[Ti(maltolato)2(OH)2] and [Ti4(maltolato)8(μ-O)4]. After 24 hours the tetrameric species continues increasing while the monomeric species decreases. Upon standing for two weeks, at pH of 8.4, this solution yields orange crystals suitable for X-ray diffraction. Evidently, Ti(maltolato)2(OH)2 further reacts to form a tetranuclear titanium complex, which crystallizes as a hydrate, [Ti4(maltolato)8(μ-O)4].18H2O, Single crystal X-ray structure determination was pursued on this high pH species, which solid state structure is illustrated in FIG. 2. The crystal data and structure refinement details as well as the bonding parameters are summarized below in Table 1 and Table 2, respectively.
Electrochemical behavior of Ti(maltolato)2(OH)2 was investigated using cyclic voltammetry (cv). Ti(maltolato)2(OH)2 in CH2Cl2/[NBu4] […] If this potential is compared with previously reported Ti(IV)-maltol and Ti(IV)-guaiacol complexes, it resembles to reduction potentials of monomeric species such as Ti(maltolato)2(OEt)2 (−1.0 V) and Ti(maltolato)2(Cl)2 (−1.55 V) and not to the tetrameric species [Ti4(guaiacolato)8(μ-O)4] (−1.94 V).

The nature of data set [3]: Stability of the crystals removed from the mother liquor. The data set is classed as physicochemical. Particulars: when removed from the mother liquor.

In the case of titanocene dichloride, the hydrolytic stability entry in data set [1] is given as “low hydrolytic stability”. `Cc1occc(=O)c1[O-].Cc1occc(=O)c1[O-].Cc1occc(=O)c1[O-].Cc1occc(=O)c1[O-].Cc1occc(=O)c1[O-].Cc1occc(=O)c1[O-].Cc1occc(=O)c1[O-].Cc1occc(=O)c1[O-].[O-2].[O-2].[O-2].[O-2].[Ti+4].[Ti+4].[Ti+4].[Ti+4]` [[Ti4(maltolato)8(μ-O)4]]: the “solubility in CH2Cl2” value in data set [2] (CH2Cl2, cyclic voltammetry attempt) is on record as “lack of solubility”. Consider `Cc1occc(=O)c1[O-].Cc1occc(=O)c1[O-].Cc1occc(=O)c1[O-].Cc1occc(=O)c1[O-].Cc1occc(=O)c1[O-].Cc1occc(=O)c1[O-].Cc1occc(=O)c1[O-].Cc1occc(=O)c1[O-].O.O.O.O.O.O.O.O.O.O.O.O.O.O.O.O.O.O.[O-2].[O-2].[O-2].[O-2].[Ti+4].[Ti+4].[Ti+4].[Ti+4]` [[Ti4(maltolato)8(μ-O)4].18H2O], for which the stability of crystals result in data set [3] is “unstable and undergoes dehydration”. In the case of “dihydroxobis(maltolato)titanium(IV) [Ti(maltolato)2(OH)2]”, the solubility in water result in data set [2] (low pH (5.4)) is on record as “slightly water soluble”; in data set [2] (pH of 8.4, promotes tetramerization), “soluble”. In the case of `CC(=O)[CH-]C(=O)c1ccccc1.CC(=O)[CH-]C(=O)c1ccccc1.CC[O-].CC[O-].[Ti+4]` [budotitane], the hydrolytic stability entry in data set [1] is “low hydrolytic stability”.
